Patent US20230382925A1, “MODULATORS OF CYSTIC FIBROSIS TRANSMEMBRANE CONDUCTANCE REGULATOR” (VERTEX PHARMACEUTICALS INCORPORATED, priority 2020, published 2023)
Where two headings read alike, the source gives them in different places.

Target: CFTR (Homo sapiens, UniProt P13569)
Assay: Membrane Potential Dye, Enteroid Assay B
Format: cell-based
Summary of the method: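 Activity given as % of a triple-combination reference (1 μM and 3 μM correctors, 300 nM acute potentiator). Enteroids were preincubated 18-24 h with compound; chloride efflux then measured 15 min by methyl oxonol fluorescence after forskolin/IBMX/Compound III stimulation in chloride-free buffer containing CaCCinh-A01 and Chicago Sky Blue.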

[1] = Table 10, read-out: Ent. B EC50

Sequence of CFTR (P13569 with tags, fused parts or gaps DEL508-508): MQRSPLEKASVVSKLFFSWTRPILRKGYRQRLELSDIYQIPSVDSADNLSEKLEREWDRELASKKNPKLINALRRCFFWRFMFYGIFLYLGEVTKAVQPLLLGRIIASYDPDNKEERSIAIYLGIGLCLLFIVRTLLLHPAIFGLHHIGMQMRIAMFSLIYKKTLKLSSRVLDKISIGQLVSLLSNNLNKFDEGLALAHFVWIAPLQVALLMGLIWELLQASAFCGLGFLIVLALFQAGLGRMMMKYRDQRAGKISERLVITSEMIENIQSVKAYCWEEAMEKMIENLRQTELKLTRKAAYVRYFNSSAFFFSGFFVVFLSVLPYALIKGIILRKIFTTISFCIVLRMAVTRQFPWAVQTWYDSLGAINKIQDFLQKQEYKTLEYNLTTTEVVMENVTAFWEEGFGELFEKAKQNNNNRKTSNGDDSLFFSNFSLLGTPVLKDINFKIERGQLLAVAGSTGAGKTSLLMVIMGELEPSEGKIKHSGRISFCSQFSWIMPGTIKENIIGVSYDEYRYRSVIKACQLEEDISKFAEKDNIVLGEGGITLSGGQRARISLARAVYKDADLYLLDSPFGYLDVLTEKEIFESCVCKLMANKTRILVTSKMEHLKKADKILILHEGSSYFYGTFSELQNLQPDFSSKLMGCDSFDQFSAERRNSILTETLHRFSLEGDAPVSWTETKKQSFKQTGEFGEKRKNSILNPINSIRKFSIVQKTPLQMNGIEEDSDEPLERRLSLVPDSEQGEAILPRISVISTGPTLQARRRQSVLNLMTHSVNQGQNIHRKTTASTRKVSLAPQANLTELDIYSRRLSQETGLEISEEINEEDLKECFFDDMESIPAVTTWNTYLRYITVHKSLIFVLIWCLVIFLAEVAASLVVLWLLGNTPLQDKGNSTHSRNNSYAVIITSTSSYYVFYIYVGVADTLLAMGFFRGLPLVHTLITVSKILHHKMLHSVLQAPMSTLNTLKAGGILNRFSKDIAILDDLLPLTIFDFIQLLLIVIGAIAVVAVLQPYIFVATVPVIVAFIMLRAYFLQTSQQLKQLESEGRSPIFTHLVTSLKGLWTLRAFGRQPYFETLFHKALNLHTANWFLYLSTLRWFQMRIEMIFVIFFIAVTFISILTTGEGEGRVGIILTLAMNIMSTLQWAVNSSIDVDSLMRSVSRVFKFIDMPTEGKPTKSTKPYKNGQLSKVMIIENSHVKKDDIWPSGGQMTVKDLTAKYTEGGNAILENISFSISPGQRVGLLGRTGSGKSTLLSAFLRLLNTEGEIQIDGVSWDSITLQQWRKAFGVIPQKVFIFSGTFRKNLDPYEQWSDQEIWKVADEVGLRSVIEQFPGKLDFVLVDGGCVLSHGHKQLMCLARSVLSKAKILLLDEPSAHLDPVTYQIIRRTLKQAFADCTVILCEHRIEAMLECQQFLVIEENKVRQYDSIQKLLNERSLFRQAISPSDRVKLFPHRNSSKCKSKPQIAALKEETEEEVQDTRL

SMILES	Ent. B Max Activity (%) (Table 9)	EC50 (Table 9, read-out: Ent. B EC50) [µM]	further results
Cc1cccc(C)c1-c1cc2nc(n1)NS(=O)(=O)c1cccc(c1)C(=O)N([C@H]1C[C@@H](N3C[C@@H](C)CC3(C)C)C1)[C@H](CC(C)C)CO2 [Compound 359]			Ent. B Max Activity (%) (Table 10): ++ (++ is 30-60%); EC50 [1]: < 1 µM
Cc1cccc(C)c1-c1cc2nc(n1)NS(=O)(=O)c1cccc(c1)C(=O)N(C1CC(N3CCCC3=O)C1)[C@H](CC(C)C)CO2 (stereo partly shown) [Compound 369]			Ent. B Max Activity (%) (Table 10): ++ (++ is 30-60%); EC50 [1]: < 1 µM
Cc1cccc(C)c1-c1cc2nc(n1)NS(=O)(=O)c1cccc(c1)C(=O)N(C1CC(N[C@H]3CC[C@H](CO)CC3)C1)[C@H](CC(C)C)CO2 (stereo partly shown) [Compound 373]	+++ (+++ is >60%)	< 1	
Cc1cccc(C)c1-c1cc2cc(n1)NS(=O)(=O)c1cccc(c1)C(=O)N(C1CC3(CC3)C1)[C@H](CC(C)C)CO2 [Compound 389]			Ent. B Max Activity (%): +++ (+++ is >60%); EC50 (read-out: Ent. B EC50): < 1 µM
Cc1cccc(C)c1-c1cc2nc(n1)NS(=O)(=O)c1cccc(n1)C(=O)N(C1CC3(CCN(C)CC3)C1)[C@H](CC(C)C)CO2 [Compound 390]			Ent. B Max Activity (%): +++ (+++ is >60%); EC50 (read-out: Ent. B EC50): < 1 µM
COC(=O)N1CCC2(CC1)CC(N1C(=O)c3cccc(n3)S(=O)(=O)Nc3nc(cc(-c4c(C)cccc4C)n3)OC[C@H]1CC(C)C)C2 [Compound 391]			Ent. B Max Activity (%): +++ (+++ is >60%); EC50 (read-out: Ent. B EC50): < 1 µM
Cc1cccc(C)c1-c1cc2nc(n1)NS(=O)(=O)c1cccc(n1)C(=O)N(C1CC3(CCNCC3)C1)[C@H](CC(C)C)CO2 [Compound 392]			Ent. B Max Activity (%): +++ (+++ is >60%); EC50 (read-out: Ent. B EC50): 1 to 3 µM
CC(C)C[C@@H]1COc2cc(C3CCCCC3(C)C)nc(n2)NS(=O)(=O)c2cccc(c2)C(=O)N1C1CC2(CCN(C)CC2)C1 (stereo partly shown) [Compound 394]			Ent. B Max Activity (%): +++ (+++ is >60%); EC50 (read-out: Ent. B EC50): 1 to 3 µM
CC(C)(C)C[C@@H]1COc2cc([C@H]3CCCCC3(C)C)nc(n2)NS(=O)(=O)c2cccc(c2)C(=O)N1C1CC2(CC2)C1 [Compound 397]			Ent. B Max Activity (%): ++ (++ is 30-60%); EC50 (read-out: Ent. B EC50): < 1 µM
CCC(O)(CC)[C@H]1CC2(C[C@H](N3C(=O)c4cccc(c4)S(=O)(=O)Nc4nc(cc(-c5c(C)cccc5C)n4)OC[C@H]3CC(C)(C)C)C2)C1 (stereo partly shown) [Compound 408]			Ent. B Max Activity (%) (Table 10): +++ (+++ is >60%); EC50 [1]: < 1 µM
CCC(O)(CC)[C@H]1CC2(C[C@H](N3C(=O)c4cccc(c4)S(=O)(=O)Nc4nc(cc(-c5c(C)cccc5C)n4)OC[C@H]3CC(C)(C)C)C2)C1 (stereo partly shown) [Compound 409]			Ent. B Max Activity (%) (Table 10): +++ (+++ is >60%); EC50 [1]: < 1 µM
Cc1cccc(C)c1-c1cc2nc(n1)NS(=O)(=O)c1cccc(n1)C(=O)N([C@H]1C[C@@H](C(C)(C)O)C1)[C@H](CC(C)(C)C)CO2 [Compound 410]			Ent. B Max Activity (%) (Table 10): +++ (+++ is >60%); EC50 [1]: < 1 µM
Cc1cccc(C)c1-c1cc2nc(n1)NS(=O)(=O)c1cccc(n1)C(=O)N(C1CC3(CC(C(=O)N(C)C)C3)C1)[C@H](CC(C)(C)C)CO2 (stereo partly shown) [Compound 414]			Ent. B Max Activity (%) (Table 10): +++ (+++ is >60%); EC50 [1]: < 1 µM
Cc1cccc(C)c1-c1cc2nc(n1)NS(=O)(=O)c1cccc(n1)C(=O)N(C1CC3(CC(C(=O)N(C)C)C3)C1)[C@H](CC(C)(C)C)CO2 (stereo partly shown) [Compound 415]			Ent. B Max Activity (%) (Table 10): +++ (+++ is >60%); EC50 [1]: < 1 µM
Cc1cccc(C)c1-c1cc2nc(n1)NS(=O)(=O)c1cccc(c1)C(=O)N(C1CC3(CCN(C(=O)C(C)C)CC3)C1)[C@H](CC(C)(C)C(F)(F)F)CO2 [Compound 416]			Ent. B Max Activity (%) (Table 10): +++ (+++ is >60%); EC50 [1]: < 1 µM
CCC(=O)N1CCC2(CC1)CC(N1C(=O)c3cccc(c3)S(=O)(=O)Nc3nc(cc(-c4c(C)cccc4C)n3)OC[C@H]1CC(C)(C)C(F)(F)F)C2 [Compound 417]			Ent. B Max Activity (%) (Table 10): +++ (+++ is >60%); EC50 [1]: < 1 µM
COC(=O)NC1CC(N2C(=O)c3cccc(c3)S(=O)(=O)Nc3nc(cc(-c4c(C)cccc4C)n3)OC[C@H]2CC(C)(C)C(F)(F)F)C1 (stereo partly shown) [Compound 418]	+++ (+++ is >60%)	< 1	
COC(=O)NC1CC(N2C(=O)c3cccc(c3)S(=O)(=O)Nc3nc(cc(-c4c(C)cccc4C)n3)OC[C@H]2CC(C)(C)C(F)(F)F)C1 (stereo partly shown) [Compound 419]			Ent. B Max Activity (%) (Table 10): +++ (+++ is >60%); EC50 [1]: < 1 µM
CC(=O)N1CCC2(CC1)CC(N1C(=O)c3cccc(c3)S(=O)(=O)Nc3nc(cc(-c4c(C)cccc4C)n3)OC[C@H]1CC(C)(C)C(F)(F)F)C2 [Compound 420]	+++ (+++ is >60%)	< 1	
Cc1cccc(C)c1-c1cc2nc(n1)NS(=O)(=O)c1cccc(c1)C(=O)N(C1CC3(CCN(C(=O)OC(C)C)CC3)C1)[C@H](CC(C)(C)C(F)(F)F)CO2 [Compound 421]	+++ (+++ is >60%)	< 1	
COCCN1CCC2(CC1)CC(N1C(=O)c3cccc(n3)S(=O)(=O)Nc3cc(cc(-c4c(C)cccc4C)n3)OC[C@H]1CC(C)C)C2 [Compound 422]	+++ (+++ is >60%)		
Cc1ccc(F)c(C)c1-c1cc2nc(n1)NS(=O)(=O)c1cccc(c1)C(=O)N(C1CC3(CC3)C1)[C@H](CC(C)C)CO2 [Compound 424]	+++ (+++ is >60%)	< 1	
Cc1cccc(C)c1-c1cc2cc(n1)NS(=O)(=O)c1cccc(n1)C(=O)N(C1CC3(CC3)C1)[C@H](CC1(C(F)(F)F)CC1)CO2 [Compound 425]	+++ (+++ is >60%)	< 1	
Cc1cccc(C)c1-c1cc2nc(n1)NS(=O)(=O)c1cc(n(C)n1)C(=O)N(C1CC3(C1)CC(C(C)(C)O)C3)[C@H](CC(C)(C)C)CO2 (stereo partly shown) [Compound 436]			Ent. B Max Activity (%) (Table 10): +++ (+++ is >60%); EC50 [1]: < 1 µM
Cc1cccc(C)c1-c1cc2nc(n1)NS(=O)(=O)c1cccc(c1)C(=O)N(C1CC3(CCN(C(=O)OC(C)(C)C)CC3)C1)[C@H](CC(C)(C)C)CO2 [Compound 437]			Ent. B Max Activity (%): ++ (++ is 30-60%); EC50 (read-out: Ent. B EC50): < 1 µM
Cc1cccc(C)c1-c1cc2nc(n1)NS(=O)(=O)c1cccc(c1)C(=O)N(C1CCN(C)CC1)CC(CC(C)C)CO2 (stereo not shown) [Compound 440]	++ (++ is 30-60%)	1 to 3	
Cc1cccc(C)c1-c1cc2nc(n1)NS(=O)(=O)c1cccc(c1)C(=O)N(C1CCN(C)CC1)CC(CC(C)C)CO2 (stereo not shown) [Compound 441]	+++ (+++ is >60%)	< 1	
Cc1cccc(C)c1-c1cc2nc(n1)NS(=O)(=O)c1cccc(c1)C(=O)N(C1CCC3(CC1)CC3)C[C@@H](C)O2 [Compound 442]			Ent. B Max Activity (%): ++ (++ is 30-60%); EC50 (read-out: Ent. B EC50): < 1 µM
COC(=O)NC1CC2(C1)CC(N1C(=O)c3cccc(c3)S(=O)(=O)Nc3nc(cc(-c4c(C)cccc4C)n3)O[C@@H](C)[C@H]1C)C2 (stereo partly shown) [Compound 443]			Ent. B Max Activity (%) (Table 10): ++ (++ is 30-60%); EC50 [1]: < 1 µM

More lines, main results first:

Ent. B Max Activity (%) (Table 9)	EC50 (Table 9, read-out: Ent. B EC50) [µM]	SMILES	further results
+++ (+++ is >60%)	< 1	CC(=O)N[C@H]1C[C@@H](N2C(=O)c3cccc(c3)S(=O)(=O)Nc3nc(cc(-c4c(C)cccc4C)n3)OC[C@H]2CC(C)C)C1 [Compound 366]	
+++ (+++ is >60%)	< 1	Cc1cccc(C)c1-c1cc2nc(n1)NS(=O)(=O)c1cccc(c1)C(=O)N([C@H]1C[C@@H](NC(C)C)C1)[C@H](CC(C)C)CO2 [Compound 367]	
+++ (+++ is >60%)	< 1	COC(=O)N[C@H]1C[C@@H](N2C(=O)c3cccc(c3)S(=O)(=O)Nc3nc(cc(-c4c(C)cccc4C)n3)OC[C@H]2CC(C)C)C1 [Compound 368]	
+++ (+++ is >60%)	1 to 3	Cc1cccc(C)c1-c1cc2nc(n1)NS(=O)(=O)c1cccc(c1)C(=O)N(C1CC(N[C@H]3CC[C@@H](O)CC3)C1)[C@H](CC(C)C)CO2 (stereo partly shown) [Compound 371]	
+++ (+++ is >60%)	< 1	Cc1cccc(C)c1-c1cc2nc(n1)NS(=O)(=O)c1cccc(c1)C(=O)N(C1CC(NC3CCC3)C1)[C@H](CC(C)C)CO2 (stereo partly shown) [Compound 375]	
+++ (+++ is >60%)	< 1	Cc1cccc(C)c1-c1cc2nc(n1)NS(=O)(=O)c1cccc(c1)C(=O)N(C1CC(N(C)C3CCC3)C1)[C@H](CC(C)C)CO2 (stereo partly shown) [Compound 376]	
+++ (+++ is >60%)	< 1	Cc1cccc(C)c1-c1cc2nc(n1)NS(=O)(=O)c1cccc(c1)C(=O)N(C1CC(NCCC(C)C)C1)[C@H](CC(C)C)CO2 (stereo partly shown) [Compound 377]	
+++ (+++ is >60%)	< 1	Cc1cccc(C)c1-c1cc2nc(n1)NS(=O)(=O)c1cccc(c1)C(=O)N([C@H]1C[C@@H](N3C[C@@H](C)O[C@@H](C)C3)C1)[C@H](CC(C)C)CO2 [Compound 380]	
+++ (+++ is >60%)	< 1	COCCN(C)C1CC(N2C(=O)c3cccc(c3)S(=O)(=O)Nc3nc(cc(-c4c(C)cccc4C)n3)OC[C@H]2CC(C)C)C1 (stereo partly shown) [Compound 382]	
+++ (+++ is >60%)	< 1	Cc1cccc(C)c1-c1cc2nc(n1)NS(=O)(=O)c1cccc(c1)C(=O)N(C1CC(N3CCN(C)C(=O)C3)C1)[C@H](CC(C)C)CO2 (stereo partly shown) [Compound 384]	
+++ (+++ is >60%)	< 1	COCCN1CCN([C@H]2C[C@@H](N3C(=O)c4cccc(c4)S(=O)(=O)Nc4nc(cc(-c5c(C)cccc5C)n4)OC[C@H]3CC(C)C)C2)CC1=O [Compound 385]	
+++ (+++ is >60%)	< 1	Cc1cccc(C)c1-c1cc2nc(n1)NS(=O)(=O)c1cccc(c1)C(=O)N([C@H]1C[C@@H](N3CCC(OCC4CC4)CC3)C1)[C@H](CC(C)C)CO2 [Compound 386]	
+++ (+++ is >60%)	< 1	Cc1cccc(C)c1-c1cc2nc(n1)NS(=O)(=O)c1cccc(c1)C(=O)N([C@H]1C[C@@H](N3CCOCC3)C1)[C@H](CC(C)C)CO2 [Compound 387]	
+++ (+++ is >60%)	< 1	Cc1cccc(C)c1-c1cc2nc(n1)NS(=O)(=O)c1cccc(c1)C(=O)N([C@H]1C[C@@H](N3CCCCC3)C1)[C@H](CC(C)C)CO2 [Compound 388]	
